According to patent publication US20190269801A1 (CEDARS-SINAI MEDICAL CENTER, priority 2016, published 2019):
Like-named read-outs stand apart in the source and are kept apart here.

Columns and labels:
Naive C4-2B PC cells = test: Growth inhibition of naive C4-2B PC cells cultured as 2D monolayer; details: for IC50: Homo sapiens
[1] = system: PC cell lines (PC3, LNCaP, C4-2, C4-2B, 22Rv1); test: Viability of immortalized prostate cancer cell lines grown as 2D monolayers; format: cell-based, human; details: 72 hours of drug exposure
Method: (§1) Immortalized PC cell lines (PC3, LNCaP, C4-2, C4-2B, 22Rv1) and 3-D spheroid growth of mouse bone marrow-derived LNCaP and C4-2B and ex vivo expanded CTCs from patients were used. […] Induction of apoptosis was assessed by caspase 3/7 luminescent assay. Growth inhibitory effects were compared between 2-D and 3-D. Senescent luciferase-tagged LNCaP and C4-2B cells from mouse bone marrow regained growth potential when propagated in vitro as 3D spheroids. RPMI medium supplemented with 10% FBS and 1% penicillin/streptomycin was used to grow CTCs in vitro.

[2] = system: ex vivo expanded CTCs from PC patients and LNCaP and C4-2B cells from mouse bone marrow, 3-D spheroids; test: Viability/apoptosis of PC CTCs and bone marrow-derived LNCaP and C4-2B grown as 3-D spheroids; format: cell-based, human
Method: as §1

Resistant C4-2B PC cells = test: Growth inhibition of AA/EZ resistant C4-2B PC cells cultured as 2D monolayer; format: cell-based; details: Homo sapiens
microtubule = test: Microtubule dynamics in PC cells; format: cell-based
Method: Microtubule dynamics are measured in NIR-SM or SM treated PC cells in the presence or absence of DT according to published protocols. Microtubule dynamics are assessed by fluorescence imaging methods, where immunolabeled tubulin is the readout for measurements of polarized forced generation, contractility and response to substrate stiffness measured in the presence of DT using established protocols. […] We test other agents, such as nocodazole and vincristine, which without being bound by theory we hypothesize block the polymerization of tubulin into microtubules, and cold temperature that can cause a rapid depolymerization of microtubules. With these controls, we determine if NIR-SM or SM may differ in enhancing the activity of DT in promoting microtubule polymerization in PC cells.

[3] = system: renal (ACHN, o-786, SKRC, Caki-1), breast (MCF-7), lung (H358), liver (HepG2), prostate (PC3, LNCaP, C4-2B), pancreatic (MIAPaCa II) and glioblastoma (U87) …; test: Cell inhibition by NIR-783 dye in a cancer cell line panel; format: cell-based; details: in vitro
PC3 tumor xenograft = details: PC3 tumors in mouse; listed as dye-simvastatin
[4] = system: pancreatic and breast cancer CTCs; details: 3-D spheroids
[5] = system: ex vivo propagated CTCs from human PC patients (3D spheroids)
[6] = system: ex vivo propagated CTCs from human PC patients (3D spheroids); test: Cytotoxicity in ex vivo propagated prostate cancer CTCs grown as 3D spheroids
[7] = system: PC cells, 3D spheroids vs 2D monolayer; details: average
[8] = system: Prostate circulating tumor cells CTC 864; details: 4 μM, 24 hours; vs control, docetaxel 1.25 μM, abiraterone acetate 3.125 μM
[9] = system: ovarian tumor cells OV90 and OVCA433; details: in vitro
[10] = system: Ramos, a B-cell lymphoma, 3-D spheroids; test: Cytotoxicity in Ramos B-cell lymphoma 3-D spheroids; format: cell-based
PDAC tumors = details: imaged 3 days after i.p. administration
human PC cell lines = test: IC50 in commonly used human PC cell lines; format: cell-based
[11] = system: B-cell lymphoma cell lines Namalwa, Raji, CA46, Ramos, Daudi; test: Growth and viability of B-cell Burkitt's lymphoma cell lines, MTT, 72 h; format: cell-based, human; details: 72 h exposure; range over all BL cell lines tested
Method: (§2) 5,000 cells/well renal cancer cells and 10,000 cells/well lymphoma cells are seeded in 96 well plates in 100 microliter medium/per well for 24 h. […] Renal cancer cells are fixed with 3.7% paraformaldehyde for 15 minutes and are stained with Crystal violet solution (0.5% in 25% methanol) for 30 minutes. After rinsing with water cell layers are dried and decolorized with Sorenson citrate with shaking for 20 minutes. […] Lymphoma cell growth was evaluated using MTT and cells are incubated for 4 hours.
(§3) Induction of apoptosis was assessed using a caspase 3/7 luminescent assay. Cleavage of apoptosis substrates and inhibition of c-myc was determined by western blotting, with images quantified by ImageJ after normalization with GAPDH. […] Formalin-fixed tumor and kidney sections were stained with hematoxylin and esosin and kidney sections scored using a semiquantitative scale designed to assess AKI-associated tubular injury (tubular epithelial cell loss, necrosis, tubular epithelial simplification, intratubular debris, and casts).

[12] = system: RCC cell lines Caki-1, o-786, ACHN and SK-RC; test: Growth and viability of RCC cell lines, 72 h exposure (crystal violet); format: cell-based, human; details: range over all RCC cell lines tested
Method: as §2
Apoptosis was assessed by caspase 3/7 luminescent assay. Cleavage of apoptosis substrates was determined by western blotting. […] Formalin-fixed tumor, liver and kidney sections were stained with H&E and kidney sections were scored semiquantitativey.

bcl-2 = bcl-2 western blot in BL cell lines; format: cell-based, human
[13] = system: Namalwa and Raji cell lines; test: Apoptosis by caspase 3/7 luminescent assay and western blot in BL cell lines; format: cell-based, human; details: 24 hours of drug exposure, 8, 16, 32 μM
Method: Namalwa cells are cultured in RPMI 1640, 10% fetal bovine serum, 1% PenStrep, and placed in a humidified atmosphere containing 5% CO2 at 37° C. 10,000-15,000 cells/well are seeded in 96 white wall well plates in 100 microliter medium/per well for 24 h. […] 100 microliters of Caspase-Glo 3/7 assay is added and luminescence is then read. Caki-1 cells are cultured in RPMI 1640, 10% fetal bovine serum, 1% PenStrep, and placed in a humidified atmosphere containing 5% CO2 at 37° C. 5,000 cells/well are seeded in 96 white wall well plates in 100 microliter medium/per well for 24 h. […] 100 microliters of Caspase-Glo 3/7 assay is added and luminescence is then read.

c-myc = c-myc western blot in BL cell lines; format: cell-based, human
Namalwa tumors = test: Namalwa xenograft growth in mice; format: in vivo, mouse; details: equimolar doses i.p. 3 times a week
mouse kidneys = test: Kidney histopathology, AKI-associated tubular injury score, Namalwa-bearing mice; details: i.p. 3 times a week for 4 weeks
Method: FIG. 27 depicts in accordance with various embodiments of the invention, formalin-fixed kidney sections are stained with hematoxylin and esosin and scored using a semiquantitative scale designed to assess AKI-associated tubular injury (tubular epithelial cell loss, necrosis, tubular epithelial simplification, intratubular debris, and casts).
as §3

For `CC(=O)O[C@H]1CC[C@@]2(C)C(=CC[C@@H]3[C@@H]2CC[C@]2(C)C(c4cccnc4)=CC[C@@H]32)C1` [AA, abiraterone acetate], the IC50 (Naive C4-2B PC cells; read-out: AA IC50, Naive C4-2B, 2D monolayer, NIR-SM 0 μM) was 6.79 µM, the IC50 (Naive C4-2B PC cells; read-out: AA IC50, Naive C4-2B, 2D monolayer, NIR-SM 0.25 μM) was 1.65 µM and the “sensitivity of cells grown as 2D monolayers” value (“sensitivity … as 2D monolayers” below) [1] was “sensitive”. For the same compound, the “sensitivity of cells grown as 3-D spheroids” value (from here on “sensitivity … as 3-D spheroids”) [2] was “resistance with no signs of apoptosis”, the IC50 (Resistant C4-2B PC cells; NIR-SM 0 μM) was 13.3 µM and the IC50 (Resistant C4-2B PC cells; NIR-SM 0.25 μM) was 3.32 µM.
In the case of `CC(=O)O[C@@]12CO[C@@H]1C[C@H](O)[C@@]1(C)C(=O)[C@H](O)C3=C(C)[C@@H](OC(=O)[C@H](O)[C@@H](NC(=O)OC(C)(C)C)c4ccccc4)C[C@@](O)([C@@H](OC(=O)c4ccccc4)[C@H]21)C3(C)C` [DT, docetaxel], the “sensitivity … as 2D monolayers” value [1] is reported as “sensitive”, the effect on microtubules (microtubule) is reported as “enhances microtubule polarization and inhibits shrinkage of microtubule length” and the “sensitivity … as 3-D spheroids” value [2] is reported as “resistance with no signs of apoptosis”.
For `CNC(=O)c1ccc(N2C(=S)N(c3ccc(C#N)c(C(F)(F)F)c3)C(=O)C2(C)C)cc1F` [EZ, enzalutamide], the “sensitivity … as 2D monolayers” value [1] was “sensitive” and the “sensitivity … as 3-D spheroids” value [2] was “resistance with no signs of apoptosis”.
`CC1(C)C(=CC=C2CCCC(C=CC3=[N+](CCCCS(=O)(=O)[O-])c4ccccc4C3(C)C)=C2Cl)N(CCCCS(=O)(=O)[O-])c2ccccc21.[Na+]` [NIR-783] was tested, and the cell inhibition effect [3] was “does not exhibit significant cell inhibition effect”.
For `CCC(C)(C)C(=O)O[C@H]1C[C@@H](C)C=C2C=C[C@H](C)[C@H](CC[C@@H]3C[C@@H](OC(=O)CCCCCN4/C(=C/C=C5\CCCC(/C=C/C6=[N+](CCCCS(=O)(=O)[O-])c7ccccc7C6(C)C)=C5Cl)C(C)(C)c5ccccc54)CC(=O)O3)[C@H]21` [NIR-SM, DZ-1-Simvastatin Conjugate], the accumulation in tumor (PC3 tumor xenograft) was “selective accumulation”, the “sensitization of the cytotoxic effects of AA and EZ” value (Naive C4-2B PC cells; NIR-SM 0.25 μM, both control and AA/EZ resistant PC cells in the C4-2B background) was 4-5 fold and the “effectiveness relative to unconjugated simvastatin” value [4] was “more effective than unconjugated simvastatin”. For the same compound, the IC50 [5] was 5 µM, the “enhancement of the cytotoxicity exerted by AA, EZ or DT” value [5] was 21-122 fold and the “IC50 lower than SM” value [6] was “about 4 fold”. The “effectiveness relative to unconjugated simvastatin” value [6] was “more effective than unconjugated simvastatin”, the “accumulation in PC 3D spheroids higher than in PC 2D monolayer” value [7] was 5 fold and the “rate of apoptosis (caspase 3/7)” value [8] was “significantly higher rate of apoptosis”. For the same compound, the “sensitivity of cell growth relative to unconjugated drug” value [9] was “more sensitive”, the “potency relative to unconjugated simvastatin” value [10] was “about 5 fold” and the synergized cisplatin cytotoxicity [10] was “over 190 fold”. The tumor targeting (PDAC tumors) was “targets specifically PDAC tumors”, the “synergy with enzalutamide (Enz) and abiraterone acetate (Abi) growth inhibition” value (C4-2B cells) was “synergizes the growth inhibitory effects of anti-androgens” and the “synergy with docetaxel growth inhibition” value (C4-2B cells; conjugate at 2 uM) was “synergizes the growth inhibitory effects of docetaxel”. For the same compound, the “effect on the growth of PC cells” value (human PC cell lines; 0.25 μM) was “marginal effects”.
With `CCC(C)(C)C(=O)O[C@H]1C[C@@H](C)C=C2C=C[C@H](C)[C@H](CC[C@@H]3C[C@@H](O)CC(=O)O3)[C@H]21` [SM, Simvastatin, reference compound] the IC50 ([6]; ex vivo propagated CTCs) was 20 µM and the IC50 (human PC cell lines; Homo sapiens, range over cell lines, dependent upon the cell types) was 1 to 7 µM.
With `N.N.[Cl][Pt][Cl]` [cisplatin, reference compound] the IC50 [11] was > 64 µM, the IC50 [12] was > 64 µM and the bcl-2 expression (bcl-2) was “no significant changes”. The “induction of apoptosis (caspase 3/7; caspase 9, caspase 3 and PARP)” value ([13]; listed as Cis) was “no sign of increased apoptotic activity”.
For `Nc1ccn([C@@H]2O[C@H](CO)[C@@H](O)C2(F)F)c(=O)n1` [gemcitabine], the “sensitivity … as 2D monolayers” value [1] was “sensitive”.
For DZ-1-cisplatin [NIR dye-cisplatin], the c-myc expression (c-myc) was “downregulates”, the tumor growth inhibition (Namalwa tumors) was “tumor growth inhibition and apoptotic nuclear lobulation/fragmentation” and the “kidney toxicity (histopathology)” value (mouse kidneys) was “preserved the integrity and normal morphology of mouse kidneys”. The bcl-2 expression (bcl-2) was “no significant changes” and the “induction of apoptosis (caspase 3/7; caspase 9, caspase 3 and PARP)” value [13] was “induces apoptosis”.
